In article PMC10819771 (Pharmaceuticals, 2023):

Columns and labels:
K562 = experiment: MTS cell proliferation assay, K562; type: cell-based, human; conditions: for IC50: Homo sapiens, K562, 72 h, MTS, 3-day incubation, leukemia cells, read-out: IC50 Values (μM) ± SEM K562; for Selectivity Index HEK293/K562: IC50 HEK293 / IC50 K562
Method in brief: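 K562 cells in RPMI 1640 with 10% FCS were exposed in quadruplicate to 0, 1, 5, 10, 20 and 50 μM compound for 1, 2 and 3 days. Viability was read by MTS conversion after 3 h at 37 °C, measured at 490 nm. CC50 after 3 days was obtained by linear regression (μM ± SD).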

HEK293 = experiment: MTT proliferation test on normal cells, HEK293; type: cell-based; conditions: Homo sapiens, normal epithelial cells, cytotoxicity, read-out: IC50 Values (μM) ± SEM HEK293
Procedure: The MTT proliferation test on the epithelial cell line HEK293 was performed as pre-viously described. The 50% inhibiting concentrations (IC50) were determined by linear regression analysis.

telomerase = experiment: Telomerase activity (TRAP assay) in MCF-7 cell lysates; type: biochemical, human; conditions: MCF-7 cell lysate
Procedure: Telomerase activity was assessed using the TRAP assay kit (TRAPeze® RT telomerase detection kit, Chemicon, Millipore Sigma S7700, Merck KGaA, Darmstadt, Germany) according to manufacturer’s instructions with some modifications. Briefly, […] in CHAPS lysis buffer and proteins were extracted. Protein extracts and various concentrations of compounds (0 to 5 µM) were used to extend a synthetic telomeric DNA using an enzymatic reaction (30 °C during 20 min), followed by a quantification of telomeric DNA using a telomeric PCR amplification: 95 °C for 3 min, 2 cycles of 95 °C for 20 s, and 49 °C for 20 s, followed by 30 cycles 95 °C for 20 s and 60 °C for 20 s with signal acquisition) in a Stratagene Mx3005P system (Agilent, Les Ulis, France) using specific telomeric PCR quantitative primers. Each sample was measured in technical duplicate with control DNA. For each drug and each dilution, we used biological triplicate of cell lysates.

[1] = system: Fc-MYCT (DNA, G4) GGGTGGGTAGGGTGGGTAA; experiment: FRET melting; conditions: 1 mM K+, 99 mM Li+ (table footnote says 10 mM KCl, 90 mM LiCl); 10 mM lithium cacodylate pH 7.2; 0.2 µM DNA, 2 µM compound
[2] = system: FK-RAST (DNA, G4) AGGGCGGTGTGGGAAGAGGGA; experiment: FRET melting; conditions: 10 mM K+, 90 mM Li+; 10 mM lithium cacodylate pH 7.2; 0.2 µM DNA, 2 µM compound
[3] = system: FBCL-2T (DNA, G4) GGGCGCGGGAGGAAGGGGGCGGG; experiment: FRET melting; conditions: 10 mM K+, 90 mM Li+; 10 mM lithium cacodylate pH 7.2; 0.2 µM DNA, 2 µM compound
[4] = system: F21T (DNA, G4) GGGTTAGGGTTAGGGTTAGGG; experiment: FRET melting; conditions: 10 mM K+, 90 mM Li+; 10 mM lithium cacodylate pH 7.2; 0.2 µM DNA, 2 µM compound
[5] = system: FdxT (DNA, hairpin, hexaethylene glycol linker between 10 and 11) TATAGCTATATATAGCTATA; experiment: FRET melting; conditions: 10 mM K+, 90 mM Li+; 10 mM lithium cacodylate pH 7.2; 0.2 µM DNA, 2 µM compound

| SMILES | IC50 (K562) | Selectivity Index HEK293/K562 (K562) | IC50 (HEK293) | telomerase activity compared to control (telomerase; 5 µM compound) | concentration from which MCF-7 telomerase activity is decreased (telomerase; 0 to 5 µM tested) | ΔT1/2 [1] | ΔT1/2 [2] | ΔT1/2 [3] | ΔT1/2 [4] | ΔT1/2 [5] |
| --- | --- | --- | --- | --- | --- | --- | --- | --- | --- | --- |
| CN(C)CCCNCc1ccc(-c2nc(-c3ccc(CNCCCN(C)C)cc3)c3cc(-c4ccccc4)ccc3n2)cc1 [Compound 12b, 2,4-bis{4-[(3-dimethylaminopropyl)aminomethyl]phenyl}-6-phenylquinazoline] | 14 ± 0.3 µM | >2.14 | > 30 µM | reduced drastically | 0.5 µM |  |  |  |  |  |
| CN1CCN(CCCCNCc2ccc(-c3nc(-c4ccc(CNCCCCN5CCN(C)CC5)cc4)c4cc(-c5ccccc5)ccc4n3)cc2)CC1 [Compound 12e, 2,4-bis{4-[(4-(4-methylpiperazin-1-yl)butyl)aminomethyl]phenyl}-6-phenylquinazoline] | 13 ± 0.2 µM |  |  |  |  | 19.5 ± 1.0 °C | 33.1 ± 2.1 °C | 22.7 ± 0.4 °C | 33.9 ± 0.5 °C | 5.4 ± 1.6 °C |
| CN(C)CCCNCc1ccc(-c2cc(-c3ccc(CNCCCN(C)C)cc3)c3cc(-c4ccccc4)ccc3n2)cc1 [Compound 13a, 2,4-bis{4-[(3-dimethylaminopropyl)aminomethyl]phenyl}-6-phenylquinoline] | 10 ± 0.4 µM | >3.0 | > 30 µM |  |  |  |  |  |  |  |
| CN1CCN(CCCCNCc2ccc(-c3cc(-c4ccc(CNCCCCN5CCN(C)CC5)cc4)c4cc(-c5ccccc5)ccc4n3)cc2)CC1 [Compound 13d, 2,4-bis{4-[(4-(4-methylpiperazin-1-yl)butyl)aminomethyl]phenyl}-6-phenylquinoline] | 14 ± 0.3 µM |  |  |  |  |  |  | 5.0 ± 1.1 °C |  |  |
